Assays:
[1] = tested on: Orobanche cumana; assay: Test D control of Orobanche cumana in resistant sunflower; assay type: in vivo
Method: The purpose of this test was to evaluate the efficacy of tribenuron-methyl to control Orobanche cumana before and after crop emergence from the soil. Various herbicide treatments were evaluated using six replications of each treatment. Treatments investigated the following modes of application: seed coating, pre-emergence soil incorporation, bare-ground pre-emergence broadcast application, and post-emergence broadcast application. All herbicide treatments used formulated herbicide compositions.
For seed coating treatments, 3 mg of Orobanche cumana seeds were added to each pot containing a growing mixture of 60% dry loamy soil, 20% sand and 20% of peat, the growing mixture having an organic matter content of 4.2% and a pH of 8.05. The pots were placed in plastic trays and watered to the extent of 25% of soil weight. Pots were kept in a greenhouse for 8 to 10 days at about 24° C. during the day and 20° C. at night. Eight seeds of BC4-M5M12 sunflower resistant mutant were sown manually in the pots contaminated with Orobanche, at the end of the incubation period of the parasitic weed seeds.
Seeds were first coated using a table-top laboratory fluid bed equipped with a coating device (“Strea 1 Aerocoater” made by Niro Aeromatic, Haupstrasse 145, CH-4416 Bubendorf, Switzerland) and a coating solution containing about 23% Sepiret 8330® (coating composition sold by Seppic, 75 quai d'Orsay Paris 75321 cedex 07 France) and 77% water at the rate of 3 L/100 Kg of seeds. After coating, the seeds were dried in a fluid bed drier at 35° C. […] The coated seeds were then dried at ambient temperature and stored until sowing.
The soil was then thoroughly mixed by hand and dispensed into the pots. The quantities of tribenuron-methyl used in these treatments are expressed in g a.i./ha based on the soil volume and pot dimensions. The quantities applied were 11.25 and 22.5 g a.i./ha.
The effect of the various treatments was evaluated 35 days after sowing. The sunflower roots were cleaned by washing in water, and the presence of Orobanche nodules was determined visually and by weighing root wet mass in comparison to check plants free of Orobanche infestation. […] The nodules caused by Orobanche increased root weight, and a correlation (r=0.7) was found between visual scores and weight measurements. Thus the weighing technique could be used to corroborate visual efficacy scorings. Orobanche emergence was also scored but found to be less useful to evaluate treatment efficiency at the evaluation timing of this test.

[2] = tested on: 'M2' seeds; assay: Hydroponic selection of M2 seeds with sulfonylurea herbicides; assay type: in vivo, sunflower; details: hydroponic beds
Method: ‘M2’ seeds were seeded in individual hydroponic beds described as “Large-Scale Hydroponic Screening System” in U.S. Pat. No. 5,084,082 and treated with sulfonylurea herbicides. For each treatment, 10,000 seeds were added per bed. […] Most of the treatments used thifensulfuron-methyl at 20, 40 or 50 μg/L or rimsulfuron at 40 or 80 μg/L. Five plants showing resistance to sulfonylurea herbicides were found during various selection experiments; these are identified in Table 2.

## COC(=O)c1ccccc1S(=O)(=O)NC(=O)N(C)c1nc(C)nc(OC)n1 [Tribenuron-methyl, tribenuron-methyl]
[1]; post-emergence broadcast spray 2.25 g a.i./ha
  Control: 63%
[1]; pre-emergence broadcast spray 11.25 g a.i./ha + post-emergence broadcast spray 11.25 g a.i./ha
  Control: 78%
[1]; pre-emergence broadcast spray 22.5 g a.i./ha
  Control: 40%
[1]; pre-emergence soil incorporation 11.25 g a.i./ha
  Control: 55%
[1]; pre-emergence soil incorporation 22.5 g a.i./ha
  Control: 72%
[1]; seed coating 0.00001 mg a.i./g + post-emergence broadcast spray 2.25 g a.i./ha
  Control: 63%
[1]; seed coating 0.00001 mg a.i./g + post-emergence broadcast spray 11.25 g a.i./ha
  Control: 70%
[1]; seed coating 0.00001 mg a.i./g, host BC4-M5M12, 35 days after sowing
  Control: 8%
[1]; seed coating 0.1 mg a.i./g + post-emergence broadcast spray 2.25 g a.i./ha
  Control: 85%
[1]; seed coating 0.1 mg a.i./g + post-emergence broadcast spray 11.25 g a.i./ha
  Control: 80%
[1]; seed coating 0.1 mg a.i./g, host BC4-M5M12, 35 days after sowing
  Control: 37%
[1]; seed coating 10 mg a.i./g + post-emergence broadcast spray 2.25 g a.i./ha
  Control: 82%
[1]; seed coating 10 mg a.i./g + post-emergence broadcast spray 11.25 g a.i./ha
  Control: 89%

## COC(=O)c1cccc(C)c1S(=O)(=O)NC(=O)Nc1nc(OCC(F)(F)F)nc(N(C)C)n1 [Triflusulfuron-methyl, triflusulfuron-methyl]
[2]
  suitability as selection agent: insufficiently active on sunflower
